From article PMC8863579, “Effects of pharmacological inhibition of the sodium‐dependent phosphate cotransporter 2b (NPT2b) on intestinal phosphate absorption in mouse and rat models” (Pharmacology Research & Perspectives, 2022) come the findings set out here.

Data set [1] addresses T1, Human PiT2 (Homo sapiens, UniProt Q08357).
T1 construct: Full Length cDNA Cloning and Generation of Cell Lines Over-Expressing Human NPT2a, NPT2c, Pit1, and Pit2; host or cells: CHO-K1, pcDNA3.1(+), constitutive
T1 sequence (Q08357 1-652): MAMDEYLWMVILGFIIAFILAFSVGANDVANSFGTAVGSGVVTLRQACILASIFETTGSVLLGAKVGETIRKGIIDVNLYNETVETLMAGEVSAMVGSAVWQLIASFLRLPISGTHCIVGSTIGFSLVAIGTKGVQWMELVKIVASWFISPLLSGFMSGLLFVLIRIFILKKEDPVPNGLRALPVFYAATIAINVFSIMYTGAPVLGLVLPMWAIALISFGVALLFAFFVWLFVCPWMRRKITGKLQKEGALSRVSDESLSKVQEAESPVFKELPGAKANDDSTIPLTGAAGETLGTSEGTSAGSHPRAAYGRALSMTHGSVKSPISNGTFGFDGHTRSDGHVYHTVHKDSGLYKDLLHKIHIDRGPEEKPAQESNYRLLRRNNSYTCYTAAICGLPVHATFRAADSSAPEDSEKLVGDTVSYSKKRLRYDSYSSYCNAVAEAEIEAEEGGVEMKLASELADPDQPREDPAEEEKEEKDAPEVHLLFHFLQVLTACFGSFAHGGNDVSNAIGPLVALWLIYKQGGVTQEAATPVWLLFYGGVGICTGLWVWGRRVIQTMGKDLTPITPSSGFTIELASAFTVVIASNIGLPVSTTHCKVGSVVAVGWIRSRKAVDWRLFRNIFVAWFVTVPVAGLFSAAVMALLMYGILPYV
The data set can be described thus: 33P-phosphate uptake in CHO cells over-expressing human PiT2. It is filed as cell-based. Here is the method: (§1) T‐Rex™ Chinese Hamster Ovary cells (CHO; Thermo Fisher Scientific) stably expressing human, mouse, or rat NPT2b under a tetracycline‐inducible promoter were generated using standard cDNA transfection and clone selection procedures (see Supporting Information). Cells were plated in 96‐well CytoStar‐T® scintillating microplates and were incubated overnight in growth media plus 100 ng/ml of tetracycline to induce expression of NPT2b. The next day, cells were washed 3 times with 200 µl assay buffer (137 mM NaCl, 5.4 mM KCl, 2.8 mM CaCl2, 1.2 mM MgSO4, and 14 mM Tris‐HCl buffer, pH 7.5). LY3358966 serially diluted 1‐to‐3 in DMSO was added to cells with assay buffer. An equal volume of H3 ^33PO4 (PerkinElmer) in assay buffer supplemented with 5 µM potassium phosphate was then added to initiate radiolabeled phosphate (^33P‐phosphate) uptake. […] The plate was immediately read on a Wallac MicroBeta Trilux liquid scintillation counter. Percent inhibition at all concentrations tested was calculated, and IC50 values were then determined using a 4‐parameter logistic curve fitting equation.
(§2) Similar methods were used to measure the effects of LY3358966 on other transporters of interest, except that constitutive promoters were used to generate CHO cells over‐expressing human PiT1 and PiT2. The ^33P‐phosphate uptake was measured after 45 min at 20°C for the NPT2a, NPT2c, PiT1, and PiT2 assays. […]

Data set [2] addresses T2, Human PiT1 (Homo sapiens, UniProt Q8WUM9).
T2 construct: Full Length cDNA Cloning and Generation of Cell Lines Over-Expressing Human NPT2a, NPT2c, Pit1, and Pit2; host or cells: CHO-K1, pcDNA3.1(+), constitutive
T2 sequence (Q8WUM9 1-679): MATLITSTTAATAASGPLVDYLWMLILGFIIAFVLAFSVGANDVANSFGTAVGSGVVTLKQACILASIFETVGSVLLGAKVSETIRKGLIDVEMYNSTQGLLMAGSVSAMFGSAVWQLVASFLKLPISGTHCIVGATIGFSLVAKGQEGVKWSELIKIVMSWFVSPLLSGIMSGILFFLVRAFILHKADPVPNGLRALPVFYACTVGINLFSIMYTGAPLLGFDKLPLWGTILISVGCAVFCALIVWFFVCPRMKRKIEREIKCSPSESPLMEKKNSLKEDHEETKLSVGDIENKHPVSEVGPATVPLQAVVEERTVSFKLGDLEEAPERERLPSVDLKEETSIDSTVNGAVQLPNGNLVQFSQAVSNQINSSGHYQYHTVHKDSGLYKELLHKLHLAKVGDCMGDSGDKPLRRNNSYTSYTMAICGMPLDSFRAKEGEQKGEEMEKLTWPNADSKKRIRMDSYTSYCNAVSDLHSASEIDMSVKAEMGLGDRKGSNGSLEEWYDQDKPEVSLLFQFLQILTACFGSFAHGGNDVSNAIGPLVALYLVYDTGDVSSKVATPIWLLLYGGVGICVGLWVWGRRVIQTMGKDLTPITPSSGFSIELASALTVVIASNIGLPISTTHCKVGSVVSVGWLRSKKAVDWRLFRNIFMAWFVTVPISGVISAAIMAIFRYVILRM
The data set is described as follows: 33P-phosphate uptake in CHO cells over-expressing human PiT1. It is filed as cell-based. Here is the method: as §1, §2

The nature of data set [3]: Unbound fraction in plasma by equilibrium dialysis. The data set is classed as in vitro ADME. To be noted: mouse plasma. Here is the method: Male CD‐1 male mice were orally dosed with 1, 3, or 10 mg/kg API of LY3358966 SDD dissolved in water or were IV dosed with 1 mg/kg LY3358966 formulated in 25% dimethylacetamide, 15% ethanol, 10% propylene glycol, 25% 2‐pyrrolidone, and 25% water. Each dose group contained six animals. Three animals were bled at 0.25, 0.5, 1, 2, 4, 8, 12, and 24 h, with each animal being bled at alternate time points. Plasma drug levels were determined by HPLC/MS. The unbound fraction of LY3358966 in plasma was determined with equilibrium dialysis and LC‐MS/MS.
A general note: In equilibrium dialysis only unbound substance equilibrates across the membrane.

In general, IC50 refers to the concentration that gives 50% inhibition. Usually fraction unbound stands for the share of the substance not bound to proteins or other matrix. A higher fraction unbound goes with weak binding. As to `CC1(C)CN(C(=O)NCCCCO)CCN1Cc1cccc(C(=O)Nc2sc3c(c2C(=O)Nc2cc(F)c(CCc4ccc(C(=O)O)cc4)c(F)c2)CCCC3)c1` [LY3358966, 4‐[2‐[2,6‐difluoro‐4‐[[2‐[[3‐[[4‐(4‐hydroxybutylcarbamoyl)‐2,2‐dimethyl‐piperazin‐1‐yl]methyl]benzoyl]amino]‐4,5,6,7‐tetrahydrobenzothiophene‐3‐carbonyl]amino]phenyl]ethyl]benzoic acid], the IC50 in data set [1] (45 min at 20°C) and in data set [2] (45 min at 20°C) was > 100 µM throughout. Besides, the Selectivity in data set [1] (ratio of IC50 of human PiT2 assay to that of human NPT2b assay) and in data set [2] (ratio of IC50 of human PiT1 assay to that of human NPT2b assay) was >3086 throughout. This compound also displayed a fraction unbound in data set [3] of 0.005.
